# Data published in patent US20240123016A1, “WITHANOLIDE-ENRICHED COMPOSITIONS AND METHODS OF USE THEREOF” (priority 2021, published 2024).
# pIC50: −log10 of the molar value.
# Key:
# [1] = system: HEK293 cells; assay: cells; settings: Homo sapiens, HEK293, read-out: IC50 for H2O2 treatment (cell viability)
# Description: Cell viability was analyzed using the MTT assay described herein.
# [2] = DPPH radical scavenging assay (antioxidant activity); type: biochemical; settings: 1000 μg/ml, 30 minutes
# Description: Antioxidant activity of various Ashwagandha samples was measured using a 2,2-diphenyl-1-picrylhydrazyl (DPPH) radical scavenging assay. DPPH is a stable free radical that produces violet solution in ethanol and, upon reduction by antioxidant compounds, produces light yellow-to-colorless solutions. For comparative antioxidant activity analysis of […], relative to non- branded and branded Ashwagandha compositions, two different dilutions (100 μg/ml and 1000 μg/ml) of each sample were prepared in ethanol and 500 μl of each sample dilution was mixed (1:1) with 500 μl of 0.04 mg/ml DPPH (Sigma #D9132-1G) ethanolic solution. Gallic acid (a natural polyphenolic antioxidant) and sucrose were used as positive and negative controls, respectively. All samples and controls were thoroughly vortexed and incubated for 30 minutes at room temperature in the dark followed by absorbance (Abs) readings at 517 nm using a spectrophotometer. Percentage antioxidant activity was calculated using the formula: 100-(AbsSample-AbsBlank/AbsControl×100), where AbsSample=Sample Dilution+DPPH Solution; AbsBlank=Sample Dilution+DPPH solvent; and AbsControl=Sample Solvent+DPPH Solution.
smiles,measurement,setting,value
"OO [H2O2, hydrogen peroxide]",pIC50,[1],3.40
O=C(O)c1cc(O)c(O)c(O)c1 [Gallic acid],percent anti-oxidant activity (%AA),[2],90.12±1.1%
